Measured values: patent US11590129B2, “Combination therapy with an antitumor alkaloid” (PHARMA MAR, S.A., priority 2010, dated 2023)
Where two headings read alike, the source gives them in different places.

Assays:
[1] = tested on: A549 human lung carcinoma cell line; assay: MTT cytotoxicity assay in A549 cells: IC50 of single agents and combinations with PM01183; format: cell-based; conditions: Homo sapiens
Procedure: (§1) Additional serial dilutions were prepared in serum-free culture medium to achieve a final 4× concentration. Aliquots of 50 μL of each diluted compound were added per well.
A549 was the human lung carcinoma cell line selected for this assay.
(§2) a. […] Briefly, cells were harvested and seeded in 96 well microtiter plates at a density of 5,000 cells in 150 μL of culture medium and incubated for 24 hours in drug-free medium before treatment with vehicle alone or test compounds for 72 h.
(§3) The cytotoxic effect was measured by the MTT reduction assay, in which 3-(4,5-Dimethylthiazol-2-yl)-2,5-diphenyltetrazolium bromide, a tetrazole, which is reduced to purple formazan in the mitochondria of living cells, was used. MTT (50 μL of 1 mg/mL stock solution) was added to the wells and incubated for 8 hours at 37° C. until formazan crystals were formed. After gently removing the culture medium, DMSO was added to dissolve the insoluble purple formazan product into a colored solution. […] Results were expressed as percentage of control cell growth.
(§4) b. In a second set of assays, A549 human tumor cells were incubated with PM01183 in combination with each of the agents mentioned above.
(§5) As a visual aid, response values were plotted on a scatter plot with dose ratios given on the x-axis and % response values on the y-axis. […] In cases where response values at the two endpoints were approximately equivalent, points lying above or below this predicted line of additivity could be interpreted as representing antagonistic or synergistic drug interaction, respectively.

[2] = tested on: IGROV-1 human ovarian adenocarcinoma cell line; assay: cells; conditions: Homo sapiens, IGROV-1, 72 h
Procedure: as §2, §3, §4, §5, §1
IGROV-1 was the human ovarian adenocarcinoma cell line selected for this assay.

[3] = tested on: MDA-MB-231 human breast adenocarcinoma cell line; assay: cells; conditions: Homo sapiens, MDA-MB-231, 72 h
Procedure: as §2, §3, §4, §5, §1

[4] = tested on: A673 human rhabdomyosarcoma cell line; assay: cells; conditions: Homo sapiens, A673, 72 h
Procedure: as §2, §3, §4, §5, §1
A673 was the human rhabdomyosarcoma cell line selected for this assay.

[5] = tested on: HGC-27 human gastric carcinoma cell line; assay: cells; conditions: Homo sapiens, HGC-27, 72 h
Procedure: as §2, §3, §4, §5, §1
HGC-27 was the human gastric carcinoma cell line selected for this assay.

[6] = tested on: HepG2 human hepatocellular liver carcinoma cell line; assay: MTT cytotoxicity assay in HepG2 cells: IC50 of single agents and combinations with PM01183; format: cell-based; conditions: Homo sapiens
Procedure: as §2, §3, §4, §5, §1
HepG2 was the human hepatocellular liver carcinoma cell line selected for this assay.

[7] = tested on: RXF-393 human kidney carcinoma cell line; assay: cells; conditions: Homo sapiens, RXF 393, 72 h
Procedure: as §2, §3, §4, §5, §1

[8] = tested on: HT-29 human colon adenocarcinoma cell line; assay: cells; conditions: Homo sapiens, HT-29, 72 h
Procedure: as §2, §3, §4, §5, §1
HT-29 was the human colon adenocarcinoma cell line selected for this assay.

[9] = tested on: PC-3 human prostate cancer cell line; assay: cells; conditions: Homo sapiens, PC-3, 72 h
Procedure: as §2, §3, §4, §5, §1
PC-3 was the human prostate adenocarcinome cell line selected for this assay.

[10] = tested on: U87-MG human glioblastoma cell line; assay: cells; conditions: Homo sapiens, U-87 MG, 72 h
Procedure: as §2, §3, §4, §5, §1
U87-MG was the human glioblastoma cell line selected for this assay.

[11] = A549, 72 hours drug exposure, MTT, read-out: IC50

IC50 [10]	SMILES	IC50 [1, 11]	IC50 [2]	IC50 [3]	IC50 ([1]; A549, 72 h)	IC50 [4]	IC50 [5]	IC50 ([6]; HepG2, 72 h)	IC50 [7]	IC50 [8]	IC50 [9]	IC50 ([6]; HepG2, 72 hours drug exposure, MTT, read-out: IC50)
–	O=NN(CCCl)C(=O)NCCCl [Carmustine, carmustine]	1000 µM	712 µM	900 µM	–	–	–	–	–	–	–	–
–	O=P1(N(CCCl)CCCl)NCCCO1 (stereo not drawn) [Cyclophosphamide, cyclophosphamide]	–	1000 µM	1000 µM	1000 µM	1000 µM	1000 µM	1000 µM	1000 µM	1000 µM	–	–
0.1 µM	CC(=O)O[C@@]12CO[C@@H]1C[C@H](O)[C@@]1(C)C(=O)[C@H](O)C3=C(C)[C@@H](OC(=O)[C@H](O)[C@@H](NC(=O)OC(C)(C)C)c4ccccc4)C[C@@](O)([C@@H](OC(=O)c4ccccc4)[C@H]21)C3(C)C [Docetaxel, docetaxel]	0.003 µM	0.0501 µM	0.0025 µM	–	0.00065 µM	–	–	0.000594 µM	0.00032 µM	0.0186 µM	0.5 µM
–	CC(C)C(=O)Nc1ccc([N+](=O)[O-])c(C(F)(F)F)c1 [Flutamide, flutamide]	–	–	–	–	–	–	–	–	–	49 µM	–
